For assay [1], the system named is HdhQ111 / HdhQ7 mouse striatal cells. Nature of the assay: Mitochondrial morphology, anti-Tom20 staining. Format: cell-based. As to the method: Figure 4 HV-3 treatment reduces mitochondrial damage and cell death in HD cell cultures. Mouse HdhQ7 and HdhQ111 striatal cells were treated with control peptide TAT or peptide HV-3 (3 uM/day for 3 days). (a) Left panel: Mitochondrial membrane potential (MMP) was determined by TMRM fluorescent dye. Right panel: HdhQ111 cells were transfected with control siRNA (siCon) and VCP siRNA (siVCP) for three days. The MMP was determined by TMRM in HdhQ111 cells treated with TAT or HV-3. (b) Mitochondrial morphology was determined by staining cells with anti-Tom20 antibody. Scale bar: 10 μm. The percentage of cells with fragmented mitochondria relative to the total number of cells was quantitated. At least 100 cells per group were counted. (c) Mitochondrial morphology was determined by EM. The length of mitochondria and the number of mitophagosomes were quantitated. At least 90 mitochondria per group were counted. […] HMGB1 release into culture medium was determined by IB analysis with anti-HMGB1 antibody. […] Cell death was determined by the release of LDH. […] (g) Quantitation of neurite length of medium spiny neurons. At least 50 neurons per group were counted by an observer blind to experimental conditions. (h) Left: the MMP was determined by TMRM fluorescent dye. […] Mitochondrial length along neurites of DARPP32/Tuj1-positive neurons was quantitated. […]

Assay [2] relates to R6/2 mice. Nature of the assay: Spontaneous locomotion, R6/2. The note with it: R6/2, 13 weeks of age, 3 mg kg^−1 per day s.c. pump from 5 weeks, n=15. The assay is classed as in vivo, mouse. An excerpt:
Male R6/2 mice and their wt littermates (4 weeks old) were purchased from Jackson Laboratories (Bar Harbor, ME; B6CBA-TgN (HD exon 1)62; JAX stock number: 006494). These mice (C57BL/6 and CBA genetic background) are transgenic for the 5′ end of the human HD gene carrying 100–150 glutamine (CAG) repeats.
(§1) Male hemizygous R6/2 mice (Tg) and their age-matched wt littermates (5-week-old) were implanted with a 28-day osmotic pump (Alzet, Cupertino CA) containing TAT control peptide or HV-3 peptide, which delivered peptides to the mice at a rate of 3 mg kg^−1 per day. The first pump was implanted subcutaneously in the back of 5-week-old mice between the shoulders and replaced once, after 4 weeks.
Gross locomotor activity was assessed in R6/2 mice and age-matched wt littermates at the ages of 13 weeks and in YAC128 mice and age-matched wt littermates at the ages of 2, 3, 6, 9, and 12 months. In an activity chamber (Omnitech Electronics, Inc), mice were placed in the center of the chamber and allowed to explore while being tracked by an automated beam system (Vertax, Omnitech Electronics Inc). Distance moved, horizontal, vertical, and rearing activities were recorded. Because R6/2 mice were sensitive to changes in environment and handling, we only conducted one-hour locomotor activity analysis for R6/2 mice and wt littermates. […]

Assay [3] relates to R6/2 mice. Description: DARPP-32 immunostaining of striatum. The note with it: R6/2, 3 mg kg^−1 per day, n=6. Format: in vivo, mouse. As to the method:
as §1
Mice were deeply anaesthetized and transcardially perfused with 4% paraformaldehyde in PBS. Brains were processed for paraffin embedment. Brain sections (5 μm, coronal) were used for immunohistochemical localization of DARPP-32 (1:500, Epitomics) using the IHC Select HRP/DAB kit (Millipore). Quantitation of DARPP-32 immunostaining was conducted using NIH image J software. The same image exposure times and threshold settings were used for sections from all treatment groups.

With `CSCC[C@H](NC(=O)[C@@H](NC(=O)[C@H](CC(C)C)NC(=O)[C@@H](NC(=O)[C@H](Cc1c[nH]cn1)NC(=O)CCCCCNC(=O)[C@H](CCCNC(=N)N)NC(=O)[C@H](CCCNC(=N)N)NC(=O)[C@H](CCCNC(=N)N)NC(=O)[C@H](CCC(N)=O)NC(=O)[C@H](CCCNC(=N)N)NC(=O)[C@H](CCCNC(=N)N)NC(=O)[C@H](CCCCN)NC(=O)[C@H](CCCCN)NC(=O)[C@H](CCCNC(=N)N)NC(=O)CNC(=O)[C@@H](N)Cc1ccc(O)cc1)C(C)C)C(C)C)C(=O)N[C@@H](CS)C(=O)N[C@@H](C)C(=O)N[C@H](C(N)=O)[C@@H](C)O` [HV-3], the fragmented mitochondria entry in assay [1] (HdhQ111 cells, 3 uM/day for 3 days, anti-Tom20) is recorded as “reduced the number of fragmented mitochondria”. For the same molecule, the “mitochondrial morphology, wt” value in assay [1] (wt counterparts of the HD models) was “only minor effects”. For the same molecule, the “spontaneous locomotion (total distance, horizontal and vertical activities)” value in the assay with R6/2 mice [2] is recorded as “markedly corrected these motor deficits”. Further, the “area of DARPP-32-immunostained cells in striatum” value in the assay on R6/2 mice [3] was “increased by HV-3 treatment”.

Values taken from PMC5007466, “VCP recruitment to mitochondria causes mitophagy impairment and neurodegeneration in models of Huntington's disease” (Nature Communications, 2016).
